Common to all, as to assay type: in vivo
The test system of one data set is rice plant. In words: Test Example 5: effect on crop by foliage application, plastic box (symbol b). The settings on record: 320 g/ha, 3 weeks after application. From the text:
(§1) Herbicidal Effect Test by Foliage Application
(§2) Sterilized diluvial soil was placed in a plastic box having a length of 21 cm, a width of 13 cm, and a depth of 7 cm. Each of the seeds of Digitaria ciliaris, Setaria viridis, Echinochloa crus-galli var. crus-galli, Avena fatua, Alopecurus myosuroides, Lolium multiflorum Lam., Apera spica-venti, Abutilon theophrasti, Amaranthus retroflexus, Chenopodium album, Stellaria media, Galium spurium, Veronica persica, corn, soybean, rice plant, wheat, beet, and rapeseed was sowed in a spot-like manner and was covered with the soil of a thickness of about 1.5 cm. Thereafter, the plants were grown in the greenhouse of 25° C. to 30° C.

For the next data set, the system named is Alopecurus myosuroides. Briefly: Test Example 5: herbicidal effect by foliage application, plastic box (symbol J). The settings on record: 320 g/ha, 3 weeks after application.
Description: as §1
as §2, with “30° C. After the plants were grown for 14 days, the emulsion agent of the compound of the present invention prepared in accordance with Formulation Example 2 was diluted with water so as to be a predetermined herbicide amount and the diluted emulsion agent was uniformly applied to a foliage part with a small-size spray. 3 weeks later from the herbicide application, the effect to each plant was investigated in accordance with the criteria of Test Example 1.” for “30° C.”

For another data set, the system named is rapeseed. In words: Test Example 5: effect on crop by foliage application, plastic box (symbol g). The note with it: 320 g/ha, 3 weeks after application.
Description: as §1, §2

Data set [1] has as its system directly sowed rice plant. Briefly: Test Example 3: effect on crop by foliage application, Wagner pot (symbol b). The settings on record: application herbicide amount 320 g/ha. As to the method: as §1
After alluvial soil was placed into 1/10000 are of Wagner pot, water was poured and mixed to form a submerged condition having a water depth of 0.1 cm to 0.5 cm. Seeds of Echinochloa crus-galli var. crus-galli, Leptochloa chinensis, Cyperus difformis, and rice were sowed and the pot was placed in the greenhouse of 25° C. to 30° C. to grow the plants.

Data set [2] deals with Echinochloa crus-galli var. crus-galli. In words: Test Example 3: herbicidal effect by foliage application, Wagner pot (symbol H). The settings on record: application herbicide amount 320 g/ha. The protocol:
as §1
(§3) After alluvial soil was placed into 1/10000 are of Wagner pot, water was poured and mixed to form a submerged condition having a water depth of 0.1 cm to 0.5 cm. Seeds of Echinochloa crus-galli var. crus-galli, Leptochloa chinensis, Cyperus difformis, and rice were sowed and the pot was placed in the greenhouse of 25° C. to 30° C. to grow the plants. After the plants were grown for 14 days, the emulsion agent of the compound of the present invention prepared in accordance with Formulation Example 2 was diluted with water so as to be a predetermined herbicide amount and the diluted emulsion agent was uniformly applied to a foliage part with a small-size spray. 3 weeks later from the herbicide application, the effect to each plant was investigated in accordance with the criteria of Test Example 1.

In the next data set the test system is Amaranthus retroflexus. Briefly: Test Example 5: herbicidal effect by foliage application, plastic box (symbol N). The note with it: 320 g/ha, 3 weeks after application.
Description: as §1
as §2, with “30° C. After the plants were grown for 14 days, the emulsion agent of the compound of the present invention prepared in accordance with Formulation Example 2 was diluted with water so as to be a predetermined herbicide amount and the diluted emulsion agent was uniformly applied to a foliage part with a small-size spray. 3 weeks later from the herbicide application, the effect to each plant was investigated in accordance with the criteria of Test Example 1.” for “30° C.”

A further data set concerns Apera spica-venti. Briefly: Test Example 5: herbicidal effect by foliage application, plastic box (symbol L). The settings on record: 320 g/ha, 3 weeks after application.
Description: as §1
as §2, with “30° C. After the plants were grown for 14 days, the emulsion agent of the compound of the present invention prepared in accordance with Formulation Example 2 was diluted with water so as to be a predetermined herbicide amount and the diluted emulsion agent was uniformly applied to a foliage part with a small-size spray. 3 weeks later from the herbicide application, the effect to each plant was investigated in accordance with the criteria of Test Example 1.” for “30° C.”

The subject of a further data set is Lolium multiflorum Lam. In words: Test Example 5: herbicidal effect by foliage application, plastic box (symbol K). The settings on record: 320 g/ha, 3 weeks after application.
Description: as §1
as §2, with “30° C. After the plants were grown for 14 days, the emulsion agent of the compound of the present invention prepared in accordance with Formulation Example 2 was diluted with water so as to be a predetermined herbicide amount and the diluted emulsion agent was uniformly applied to a foliage part with a small-size spray. 3 weeks later from the herbicide application, the effect to each plant was investigated in accordance with the criteria of Test Example 1.” for “30° C.”

Another data set has as its system soybean. Briefly: Test Example 5: effect on crop by foliage application, plastic box (symbol d). The settings on record: 320 g/ha, 3 weeks after application.
Description: as §1, §2

A further data set concerns wheat. In words: Test Example 5: effect on crop by foliage application, plastic box (symbol e). The settings on record: 320 g/ha, 3 weeks after application.
Description: as §1, §2

The test system of another data set is corn. In words: Test Example 5: effect on crop by foliage application, plastic box (symbol c). The note with it: 320 g/ha, 3 weeks after application.
Description: as §1, §2

The next data set has as its system Digitaria ciliaris. Briefly: Test Example 5: herbicidal effect by foliage application, plastic box (symbol F). The settings on record: 320 g/ha, 3 weeks after application.
Description: as §1
as §2, with “30° C. After the plants were grown for 14 days, the emulsion agent of the compound of the present invention prepared in accordance with Formulation Example 2 was diluted with water so as to be a predetermined herbicide amount and the diluted emulsion agent was uniformly applied to a foliage part with a small-size spray. 3 weeks later from the herbicide application, the effect to each plant was investigated in accordance with the criteria of Test Example 1.” for “30° C.”

Another data set deals with Avena fatua. Briefly: Test Example 5: herbicidal effect by foliage application, plastic box (symbol I). The note with it: 320 g/ha, 3 weeks after application.
Description: as §1
as §2, with “30° C. After the plants were grown for 14 days, the emulsion agent of the compound of the present invention prepared in accordance with Formulation Example 2 was diluted with water so as to be a predetermined herbicide amount and the diluted emulsion agent was uniformly applied to a foliage part with a small-size spray. 3 weeks later from the herbicide application, the effect to each plant was investigated in accordance with the criteria of Test Example 1.” for “30° C.”

A further data set concerns Galium spurium. Briefly: Test Example 5: herbicidal effect by foliage application, plastic box (symbol Q). The settings on record: 320 g/ha, 3 weeks after application.
Description: as §1
as §2, with “30° C. After the plants were grown for 14 days, the emulsion agent of the compound of the present invention prepared in accordance with Formulation Example 2 was diluted with water so as to be a predetermined herbicide amount and the diluted emulsion agent was uniformly applied to a foliage part with a small-size spray. 3 weeks later from the herbicide application, the effect to each plant was investigated in accordance with the criteria of Test Example 1.” for “30° C.”

The test system of data set [3] is Echinochloa crus-galli var. crus-galli. In words: Test Example 5: herbicidal effect by foliage application, plastic box (symbol H). The settings on record: 320 g/ha, 3 weeks after application.
Description: as §1
as §2, with “30° C. After the plants were grown for 14 days, the emulsion agent of the compound of the present invention prepared in accordance with Formulation Example 2 was diluted with water so as to be a predetermined herbicide amount and the diluted emulsion agent was uniformly applied to a foliage part with a small-size spray. 3 weeks later from the herbicide application, the effect to each plant was investigated in accordance with the criteria of Test Example 1.” for “30° C.”

Another data set concerns Setaria viridis. Briefly: Test Example 5: herbicidal effect by foliage application, plastic box (symbol G). The note with it: 320 g/ha, 3 weeks after application.
Description: as §1
as §2, with “30° C. After the plants were grown for 14 days, the emulsion agent of the compound of the present invention prepared in accordance with Formulation Example 2 was diluted with water so as to be a predetermined herbicide amount and the diluted emulsion agent was uniformly applied to a foliage part with a small-size spray. 3 weeks later from the herbicide application, the effect to each plant was investigated in accordance with the criteria of Test Example 1.” for “30° C.”

The test system of a further data set is Leptochloa chinensis. Briefly: Test Example 3: herbicidal effect by foliage application, Wagner pot (symbol D). The settings on record: application herbicide amount 320 g/ha. The protocol:
as §1, §3

Another data set concerns Stellaria media. Briefly: Test Example 5: herbicidal effect by foliage application, plastic box (symbol P). The settings on record: 320 g/ha, 3 weeks after application.
Description: as §1
as §2, with “30° C. After the plants were grown for 14 days, the emulsion agent of the compound of the present invention prepared in accordance with Formulation Example 2 was diluted with water so as to be a predetermined herbicide amount and the diluted emulsion agent was uniformly applied to a foliage part with a small-size spray. 3 weeks later from the herbicide application, the effect to each plant was investigated in accordance with the criteria of Test Example 1.” for “30° C.”

Another data set concerns Chenopodium album. In words: Test Example 5: herbicidal effect by foliage application, plastic box (symbol O). The note with it: 320 g/ha, 3 weeks after application.
Description: as §1
as §2, with “30° C. After the plants were grown for 14 days, the emulsion agent of the compound of the present invention prepared in accordance with Formulation Example 2 was diluted with water so as to be a predetermined herbicide amount and the diluted emulsion agent was uniformly applied to a foliage part with a small-size spray. 3 weeks later from the herbicide application, the effect to each plant was investigated in accordance with the criteria of Test Example 1.” for “30° C.”

The test system of another data set is Veronica persica. In words: Test Example 5: herbicidal effect by foliage application, plastic box (symbol R). The settings on record: 320 g/ha, 3 weeks after application.
Description: as §1
as §2, with “30° C. After the plants were grown for 14 days, the emulsion agent of the compound of the present invention prepared in accordance with Formulation Example 2 was diluted with water so as to be a predetermined herbicide amount and the diluted emulsion agent was uniformly applied to a foliage part with a small-size spray. 3 weeks later from the herbicide application, the effect to each plant was investigated in accordance with the criteria of Test Example 1.” for “30° C.”

Another data set concerns Abutilon theophrasti. In words: Test Example 5: herbicidal effect by foliage application, plastic box (symbol M). The settings on record: 320 g/ha, 3 weeks after application.
Description: as §1
as §2, with “30° C. After the plants were grown for 14 days, the emulsion agent of the compound of the present invention prepared in accordance with Formulation Example 2 was diluted with water so as to be a predetermined herbicide amount and the diluted emulsion agent was uniformly applied to a foliage part with a small-size spray. 3 weeks later from the herbicide application, the effect to each plant was investigated in accordance with the criteria of Test Example 1.” for “30° C.”

In the next data set the test system is beet. In words: Test Example 5: effect on crop by foliage application, plastic box (symbol f). The settings on record: 320 g/ha, 3 weeks after application.
Description: as §1, §2

Here are results for one molecule from patent publication US11000033B2, “Ketone or oxime compound, and herbicide” (NISSAN CHEMICAL CORPORATION, priority 2014, dated 2021).

SMILES strings stand for the structures.

Regarding `CON=C(C)CC1CC(O)=C(c2c(C)cc(-c3ccncc3)cc2C)C1=O` (stereo not shown) [6-105], the “b: directly sowed rice plant, effect on crop (criteria of Test Example 1)” value with rice plant was 3 (Herbicidal ratio of 40% or higher and lower than 70%). Besides, the “J: Alopecurus myosuroides, herbicidal effect (criteria of Test Example 1)” value in the data set with Alopecurus myosuroides was 2 (Herbicidal ratio of 20% or higher and lower than 40%). Besides, the “g: rapeseed, effect on crop (criteria of Test Example 1)” value in the data set on rapeseed was 4 (Herbicidal ratio of 70% or higher and lower than 90%). Further, the “effect on crop b (directly sowed rice plant), grade 0-5” value in data set [1] is 4 (Herbicidal ratio of 70% or higher and lower than 90%). Besides, the “herbicidal effect on H (Echinochloa crus-galli var. crus-galli), grade 0-5” value in [2] was 3 (Herbicidal ratio of 40% or higher and lower than 70%). Besides, the “N: Amaranthus retroflexus, herbicidal effect (criteria of Test Example 1)” value with Amaranthus retroflexus was 0 (Herbicidal ratio of 5% or lower (almost no effect)). In addition, the “L: Apera spica-venti, herbicidal effect (criteria of Test Example 1)” value in the data set with Apera spica-venti was 2 (Herbicidal ratio of 20% or higher and lower than 40%). Moreover, in the data set on Lolium multiflorum Lam., the “K: Lolium multiflorum Lam., herbicidal effect (criteria of Test Example 1)” value is 4 (Herbicidal ratio of 70% or higher and lower than 90%). In addition, in the data set with soybean, the “d: soybean, effect on crop (criteria of Test Example 1)” value is reported as 0 (Herbicidal ratio of 5% or lower (almost no effect)). Also, the “e: wheat, effect on crop (criteria of Test Example 1)” value with wheat is on record as 0 (Herbicidal ratio of 5% or lower (almost no effect)). Further, in the data set with corn, the “c: corn, effect on crop (criteria of Test Example 1)” value was 3 (Herbicidal ratio of 40% or higher and lower than 70%). Besides, the “F: Digitaria ciliaris, herbicidal effect (criteria of Test Example 1)” value with Digitaria ciliaris is 5 (Herbicidal ratio of 90% or more (almost completely withered)). Further, the “I: Avena fatua, herbicidal effect (criteria of Test Example 1)” value in the data set with Avena fatua was 2 (Herbicidal ratio of 20% or higher and lower than 40%). Also, the “Q: Galium spurium, herbicidal effect (criteria of Test Example 1)” value in the data set with Galium spurium was 3 (Herbicidal ratio of 40% or higher and lower than 70%). For the same molecule, in [3], the “H: Echinochloa crus-galli var. crus-galli, herbicidal effect (criteria of Test Example 1)” value is listed as 5 (Herbicidal ratio of 90% or more (almost completely withered)). Moreover, the “G: Setaria viridis, herbicidal effect (criteria of Test Example 1)” value in the data set on Setaria viridis is listed as 5 (Herbicidal ratio of 90% or more (almost completely withered)). For the same molecule, the “herbicidal effect on D (Leptochloa chinensis), grade 0-5” value in the data set with Leptochloa chinensis is 4 (Herbicidal ratio of 70% or higher and lower than 90%). In addition, the “P: Stellaria media, herbicidal effect (criteria of Test Example 1)” value with Stellaria media is 0 (Herbicidal ratio of 5% or lower (almost no effect)). Further, the “O: Chenopodium album, herbicidal effect (criteria of Test Example 1)” value with Chenopodium album is 0 (Herbicidal ratio of 5% or lower (almost no effect)). The “R: Veronica persica, herbicidal effect (criteria of Test Example 1)” value in the data set with Veronica persica is 3 (Herbicidal ratio of 40% or higher and lower than 70%). Further, in the data set with Abutilon theophrasti, the “M: Abutilon theophrasti, herbicidal effect (criteria of Test Example 1)” value is 0 (Herbicidal ratio of 5% or lower (almost no effect)). Besides, the “f: beet, effect on crop (criteria of Test Example 1)” value in the data set on beet is given as 0 (Herbicidal ratio of 5% or lower (almost no effect)).
